In this data set the test system is human TGF-beta1 mRNA. Description: Antisense inhibition of human TGF-beta1 mRNA in HuVEC cells, single 10 nM dose, Lipofectamine 2000 (Example 2). The data set is classed as cell-based. The note with it: for % inhibition: 10 nM oligonucleotide, HuVEC, relative to untreated control cells; for inhibition of a TGF-beta1 mRNA: threshold lists of Oligo IDs, 10 nM. The protocol:
Antisense oligonucleotides targeted to a TGF-beta1 nucleic acid were tested for their effects on TGF-beta1 mRNA in vitro. Cultured HuVEC cells at a density of 5,000 cells per well were transfected using Lipofectamine™ 2000 reagent with 10 nM antisense oligonucleotide for 4 hours. After a recovery period of approximately 24 hours, RNA was isolated from the cells and TGF-beta1 mRNA levels were measured by quantitative real-time PCR. TGF-beta1 mRNA levels were adjusted according to total RNA content, as measured by RIBOGREEN®. Results are presented as percent inhibition of TGF-beta1, relative to untreated control cells.
The chimeric antisense oligonucleotides in Tables 1 and 2 were designed as 2-13-5 MOE gapmers. Antisense molecules with this motif targeting TGF-beta1 are unique, and represent a novel chemical structure for an ASO directed against this target. The gapmers are 20 nucleotides in length, wherein the central gap segments are comprised of thirteen 2′-deoxynucleotides and are flanked on the 5′ side by wings comprising two nucleotides each and on the 3′ side by wings comprising five nucleotides each. Each nucleotide in the 5′ wing segment and each nucleotide in the 3′ wing segment has a 2′-MOE modification. The internucleoside linkages throughout each gapmer are phosphorothioate (P═S) linkages. All cytosine residues throughout each gapmer are 5-methylcytosines. “Target start site” indicates the 5′-most nucleotide to which the gapmer is targeted. “Target stop site” indicates the 3′-most nucleotide to which the gapmer is targeted. Each gapmer listed in Table 1 is targeted to SEQ ID NO: 1 (GENBANK Accession No. NM_000660.3). Each gapmer listed in Table 2 is targeted to SEQ ID NO: 2 (GENBANK Accession No. NT 011109.15 truncated from 14103000 to […]).

The mark [1] stands for this setting: gapmers targeted to SEQ ID NO: 2.
[2] abbreviates: gapmers targeted to SEQ ID NO: 1.

Values joined by “and” are separate entries in the source; they are usually repeats but may differ in a detail not shown here. Equal entries are not always repeated. In the oligonucleotide strings, read from the 5' end, every base follows the letter of its sugar. An asterisk marks phosphorothioate; unmarked linkages are phosphodiester. Other units and linkages are bracketed, terminal groups are in braces. A string of capitals states the bases alone. e = 2'-O-(2-methoxyethyl) (MOE); [5mC] = 5-methylcytosine; d = 2'-deoxy (DNA)

Regarding “414108 (antisense e[5mC]*eA*d[5mC]*dA*dT*dG*d[5mC]*dA*dA*dT*d[5mC]*d[5mC]*dA*d[5mC]*d[5mC]*eG*eT*eG*eT*eT) [compound 414108]”, the “inhibition of a TGF-beta1 mRNA” value came to 60%. Moreover, the “% inhibition” value under setting [1] is on record as 61%.

For the substance “414060 (antisense eA*e[5mC]*dA*dG*d[5mC]*dA*dA*dT*dA*dA*d[5mC]*dA*dT*dT*dA*eA*eG*e[5mC]*eT*e[5mC]) [compound 414060]”, the “% inhibition” value under setting [1] was found to be 31%.

For the substance “414061 (antisense eT*eG*dT*dG*dT*dG*dA*d[5mC]*d[5mC]*dA*dT*dG*dG*dG*d[5mC]*eA*eG*eT*eT*eA) [compound 414061]”, the “inhibition of a TGF-beta1 mRNA” value was 60% and 65%. Besides, the “% inhibition” value under setting [1] is given as 69%.

Take “414008 (antisense e[5mC]*eT*dG*dG*dT*dA*d[5mC]*d[5mC]*dA*dG*dA*dA*dG*dG*dT*eG*eG*eG*eT*eG) [compound 414008]”: the “inhibition of a TGF-beta1 mRNA” value was 60% and 65% and 70% and 75% and 80% and 85%. Moreover, the “% inhibition” value under setting [2] is on record as 89%.

Consider “413989 (antisense eG*eG*d[5mC]*dA*dA*dA*dG*dG*dG*dA*dG*dG*d[5mC]*dG*dG*eT*e[5mC]*eT*eG*eG) [compound 413989]”, for which the “% inhibition” value under setting [2] is given as 41%.

As for “414019 (antisense eG*eG*dA*dA*dA*dT*dA*dA*d[5mC]*d[5mC]*dT*dA*dG*dA*dT*eG*eG*eG*e[5mC]*eG) [compound 414019]”, the “inhibition of a TGF-beta1 mRNA” value was 60% and 65% and 70% and 75%. In addition, the “% inhibition” value under setting [2] came to 78%.

With “414044 (antisense eA*eT*d[5mC]*dT*dA*dA*d[5mC]*dT*dA*d[5mC]*dA*dG*dT*dA*dG*eT*eG*eT*eT*e[5mC]) [compound 414044]”, the “% inhibition” value under setting [2] was found to be 31%.

Regarding “414028 (antisense e[5mC]*e[5mC]*dA*dT*dT*dA*dG*d[5mC]*dA*d[5mC]*dG*d[5mC]*dG*dG*dG*eT*eG*eA*e[5mC]*e[5mC]) [compound 414028]”, the “inhibition of a TGF-beta1 mRNA” value was 60% and 65% and 70% and 75%. Further, under setting [2], the “% inhibition” value was 75%.

Regarding “413981 (antisense e[5mC]*eT*d[5mC]*d[5mC]*dG*dG*d[5mC]*dT*d[5mC]*d[5mC]*d[5mC]*dA*dG*d[5mC]*dG*eG*e[5mC]*eA*eA*e[5mC]) [compound 413981]”, the “inhibition of a TGF-beta1 mRNA” value was 60% and 65% and 70%. Further, the “% inhibition” value under setting [2] worked out at 71%.

With “414114 (antisense eT*eT*dT*d[5mC]*d[5mC]*dA*dA*dG*dA*dG*d[5mC]*d[5mC]*dA*d[5mC]*dA*eG*eA*eA*eG*e[5mC]) [compound 414114]”, the “% inhibition” value under setting [1] was 46%.

“414059 (antisense e[5mC]*eA*dA*dG*dA*d[5mC]*dA*dG*dA*dG*dT*dG*dA*d[5mC]*dT*e[5mC]*eT*eA*eG*eA) [compound 414059]”: the “inhibition of a TGF-beta1 mRNA” value is 60% and 65%. Besides, the “% inhibition” value under setting [1] is reported as 66%.

As to “414015 (antisense e[5mC]*e[5mC]*dT*dA*dG*dA*dT*dG*dG*dG*d[5mC]*dG*d[5mC]*dG*dA*eT*e[5mC]*eT*eG*eG) [compound 414015]”, the “inhibition of a TGF-beta1 mRNA” value is 60% and 65% and 70% and 75% and 80%. Besides, the “% inhibition” value under setting [2] was found to be 83%.

“413971 (antisense eG*eG*d[5mC]*d[5mC]*dT*d[5mC]*dA*dG*dG*d[5mC]*dT*dG*d[5mC]*dT*d[5mC]*e[5mC]*eT*e[5mC]*eG*eG) [compound 413971]”: the “inhibition of a TGF-beta1 mRNA” value is 60% and 65% and 70% and 75%. For the same substance, under setting [2], the “% inhibition” value stood at 78%.

In the case of “413977 (antisense e[5mC]*e[5mC]*d[5mC]*dA*dG*d[5mC]*dG*dG*d[5mC]*dA*dA*d[5mC]*dG*dG*dA*eA*eA*eA*eG*eT) [compound 413977]”, the “% inhibition” value under setting [2] is on record as 57%.

For “414118 (antisense eA*eA*dT*dG*d[5mC]*d[5mC]*d[5mC]*dA*dA*dG*dT*d[5mC]*d[5mC]*dT*d[5mC]*eA*e[5mC]*e[5mC]*eG*eT) [compound 414118]”, the “inhibition of a TGF-beta1 mRNA” value was 60% and 65% and 70%. Further, the “% inhibition” value under setting [1] was 73%.

For the substance “414078 (antisense eT*eG*dG*dG*d[5mC]*dA*dA*dT*dT*dA*dT*dT*dG*dA*dA*eT*eA*eA*eA*eA) [compound 414078]”, under setting [1], the “% inhibition” value stood at 18%.

As to “414080 (antisense eT*eT*dG*dA*d[5mC]*d[5mC]*dA*dA*dG*dA*d[5mC]*dA*dG*dA*dT*eG*eA*eG*e[5mC]*eT) [compound 414080]”, the “% inhibition” value under setting [1] came to 54%.

As for “414083 (antisense eA*eA*d[5mC]*d[5mC]*dT*dG*dG*dA*dG*d[5mC]*dA*d[5mC]*d[5mC]*dT*dG*eG*eT*e[5mC]*eA*eG) [compound 414083]”, the “% inhibition” value under setting [1] turned out to be 42%.

With “414002 (antisense eG*eG*dT*dG*dG*dG*dT*dG*dG*dT*d[5mC]*dT*dT*dG*dA*eA*eT*eA*eG*eG) [compound 414002]”, the “inhibition of a TGF-beta1 mRNA” value was 60% and 65% and 70% and 75% and 80%. Besides, the “% inhibition” value under setting [2] worked out at 80%.

As to “413985 (antisense e[5mC]*e[5mC]*d[5mC]*d[5mC]*dG*d[5mC]*dG*d[5mC]*d[5mC]*dT*d[5mC]*d[5mC]*dG*dG*d[5mC]*eT*e[5mC]*e[5mC]*e[5mC]*eA) [compound 413985]”, the “inhibition of a TGF-beta1 mRNA” value is 60% and 65%. The “% inhibition” value under setting [2] was found to be 66%.

As to “414041 (antisense eA*e[5mC]*dA*dG*dA*dG*dA*dT*d[5mC]*d[5mC]*dG*d[5mC]*dA*dG*dT*e[5mC]*e[5mC]*eT*e[5mC]*eT) [compound 414041]”, the “inhibition of a TGF-beta1 mRNA” value is 60% and 65% and 70%. For the same substance, the “% inhibition” value under setting [2] amounted to 74%.

For the substance “414027 (antisense eG*eG*d[5mC]*d[5mC]*dT*d[5mC]*dA*dG*dG*d[5mC]*dT*d[5mC]*dG*dG*dG*e[5mC]*eT*e[5mC]*e[5mC]*eG) [compound 414027]”, the “inhibition of a TGF-beta1 mRNA” value was 60% and 65% and 70% and 75% and 80%. In addition, under setting [2], the “% inhibition” value is reported as 84%.

With “414087 (antisense eG*eT*dG*dA*d[5mC]*d[5mC]*dT*dT*d[5mC]*d[5mC]*dA*dA*d[5mC]*dT*dT*eT*eG*eA*eA*eT) [compound 414087]”, the “inhibition of a TGF-beta1 mRNA” value is 60% and 65% and 70% and 75%. Under setting [1], the “% inhibition” value is reported as 77%.

“414091 (antisense eG*eG*dT*dA*dT*d[5mC]*d[5mC]*dA*d[5mC]*dA*dA*dT*dT*dG*dG*e[5mC]*e[5mC]*eA*eG*eT) [compound 414091]”: the “inhibition of a TGF-beta1 mRNA” value was determined as 60%. Under setting [1], the “% inhibition” value is 64%.

As for “414007 (antisense eG*eG*dT*dA*d[5mC]*d[5mC]*dA*dG*dA*dA*dG*dG*dT*dG*dG*eG*eT*eG*eG*eT) [compound 414007]”, the “inhibition of a TGF-beta1 mRNA” value was 60% and 65% and 70% and 75% and 80% and 85% and 90%. Also, under setting [2], the “% inhibition” value is on record as 94%.

For “414111 (antisense eT*eT*dG*dA*dA*d[5mC]*dA*dA*dG*d[5mC]*d[5mC]*dG*dT*d[5mC]*dT*eA*eG*eG*eT*eG) [compound 414111]”, the “inhibition of a TGF-beta1 mRNA” value was 60% and 65% and 70% and 75% and 80%. Besides, the “% inhibition” value under setting [1] is recorded as 81%.

As to “414122 (antisense eT*e[5mC]*dA*d[5mC]*dT*dA*dA*d[5mC]*dA*d[5mC]*dA*dG*dA*dT*dT*eA*eA*eG*e[5mC]*eA) [compound 414122]”, the “% inhibition” value under setting [1] was found to be 34%.

In the case of “414030 (antisense e[5mC]*eT*dA*dA*dG*dG*d[5mC]*dG*dA*dA*dA*dG*d[5mC]*d[5mC]*d[5mC]*eT*e[5mC]*eA*eA*eT) [compound 414030]”, the “inhibition of a TGF-beta1 mRNA” value is reported as 60%. Under setting [2], the “% inhibition” value was 60%.

Consider “414088 (antisense eT*eT*d[5mC]*dT*dA*dG*d[5mC]*dA*dT*dT*d[5mC]*dT*dA*dG*dA*eA*eT*e[5mC]*e[5mC]*e[5mC]) [compound 414088]”, for which the “inhibition of a TGF-beta1 mRNA” value was 60% and 65%. Further, the “% inhibition” value under setting [1] amounted to 66%.

Turning to “414013 (antisense eT*eG*dG*dG*d[5mC]*dG*d[5mC]*dG*dA*dT*d[5mC]*dT*dG*dG*dT*eA*e[5mC]*e[5mC]*eA*eG) [compound 414013]”, the “inhibition of a TGF-beta1 mRNA” value was 60% and 65% and 70% and 75% and 80% and 85% and 90%. Moreover, under setting [2], the “% inhibition” value turned out to be 90%.

Turning to “413973 (antisense e[5mC]*eA*dA*d[5mC]*dG*dG*dA*dA*dA*dA*dG*dT*d[5mC]*dT*d[5mC]*eA*eA*eA*eA*eG) [compound 413973]”, the “% inhibition” value under setting [2] was 25%.

As for “414069 (antisense e[5mC]*eT*dA*dT*dG*dA*dG*dT*dT*dA*dA*d[5mC]*dA*dT*dT*e[5mC]*e[5mC]*e[5mC]*eT*e[5mC]) [compound 414069]”, the “inhibition of a TGF-beta1 mRNA” value was 60%. Further, under setting [1], the “% inhibition” value is listed as 62%.

Consider “414063 (antisense eA*eA*dG*dT*d[5mC]*dG*dA*d[5mC]*dT*dA*dA*dG*dG*d[5mC]*dT*eG*eG*e[5mC]*eA*e[5mC]) [compound 414063]”, for which the “inhibition of a TGF-beta1 mRNA” value is 60% and 65% and 70% and 75% and 80%. Besides, under setting [1], the “% inhibition” value is reported as 80%.

For orientation: % inhibition means the percentage by which the read-out fell short of the control. Low values mean a response near the control, high ones a response far below the control.

For the origin of these results see patent US20110172296A1, “MODULATION OF TRANSFORMING GROWTH FACTOR-BETA 1 EXPRESSION” (priority 2010, published 2011).
